Publication PMC7859945 (ACS Omega, 2021)
Where a name gives a salt, the structure may show the parent alone.

What was measured:
[1] = tested on: various breast cancer cells; details: various breast cancer cells in vitro; cited from earlier work
[2] = tested on: triple-negative breast cancer; details: mouse model of triple-negative breast cancer, 250 mg/kg; cited from earlier work
[3] = Solubility in water; format: physicochemical; details: data not shown
[4] = Kinetic solubility study of metformin salts in lipid excipients; details: for solubility in lipid vehicles: Miglyol 812N and Capryol 90 (text statement for both); for solubility (mg/g) of lipid excipient: medium-chain triglyceride (Miglyol 812N), kinetic solubility, visual inspection
[5] = tested on: MYCN-2 and SK-N-Be2c neuroblastoma cells; experiment: In vitro cytotoxicity, SRB assay, statements spanning both neuroblastoma lines; format: cell-based, human; details: MYCN-2 and SK-N-Be2c cells
[6] = cited from earlier work
[7] = tested on: MYCN-2 cells; experiment: In vitro cytotoxicity, SRB assay, MYCN-2 cells; format: cell-based; details: Homo sapiens, read-out: IC50, cytotoxicity (MYCN)
[8] = tested on: SK-N-Be2c cells; experiment: In vitro cytotoxicity, SRB assay, SK-N-Be2c cells; format: cell-based; details: Homo sapiens, SK-N-BE(2)-C, read-out: IC50, cytotoxicity (Be2c)
[9] = tested on: cancer cells; details: read-out: IC50, anticancer activity; cited from earlier work

Question: For CCCC(=O)O.CN(C)C(=N)N=C(N)N [metformin butyrate], which “improvement of the potency of metformin” value [1] is on record?
Answer: Its value is 2- to 10 fold.

Question: And the “anticancer activity versus metformin” value [2]?
Answer: Its value is “significantly higher anticancer activity than metformin”.

Question: For CN(C)C(=N)NC(=N)N.C[C@H](CCC(=O)O)[C@H]1CC[C@H]2[C@@H]3[C@H](O)C[C@@H]4C[C@H](O)CC[C@]4(C)[C@H]3C[C@H](O)[C@]12C [metformin cholate, Metformin Cholate], which water solubility [3] is on record?
Answer: Its water solubility is > 1000 µg/mL.

Question: And the “solubility in lipid vehicles” value [4]?
Answer: The value was < 5 mg/g.

Question: And the “solubility (mg/g) of lipid excipient” value [4]?
Answer: Its value is <5 mg/g.

Question: With CCCCC(CC)COC(=O)CC(C(=O)OCC(CC)CCCC)S(=O)(=O)O.CN(C)C(=N)N=C(N)N (stereo not drawn) [metformin docusate, Metformin Docusate] as the molecule, how does the “improvement in anticancer potency (lower IC50) compared to metformin hydrochloride” value [5] read?
Answer: Its value is 700- to 4300 fold.

Question: What about the “solubility in medium-chain triglycerides and propylene glycol fatty acid esters” value [6] of the same molecule?
Answer: Its value is > 75 mg/g.

Question: What about the “solubility in lipid vehicles” value [4] of the same molecule?
Answer: Its value is > 200 mg/g.

Question: What about the “solubility (mg/g) of lipid excipient” value [4] of the same molecule?
Answer: The value was >200 mg/g.

Question: With CN(C)C(=N)NC(=N)N.NCC1(CC(=O)O)CCCCC1 [metformin gabapentin salt] as the molecule, how does the “improvement of the potency of metformin” value [1] read?
Answer: Its value is 2- to 10 fold.

Question: Which “improvement of the potency of metformin” value [1] does the source give for CN(C)C(=N)NC(=N)N.NCCCC(=O)O [metformin gamma-aminobutyric acid salt] here?
Answer: The value was 2- to 10 fold.

Question: For CN(C)C(=N)N=C(N)N [metformin hydrochloride, Metformin hydrochloride], which IC50 [7] is on record?
Answer: Its IC50 is > 100 mM.

Question: And the IC50 [8]?
Answer: Its IC50 is > 100 mM.

Question: And the IC50 [9]?
Answer: The IC50 was > 1 mM.

Question: With CC(C)C[C@H](CN)CC(=O)O.CN(C)C(=N)NC(=N)N [metformin pregabalin salt] as the molecule, how does the “improvement of the potency of metformin” value [1] read?
Answer: The value was 2- to 10 fold.
